Measurements as given in patent US20160067187A1, “Methods for Treating or Preventing Migraines” (Validus Pharmaceuticals LLC, priority 2005, published 2016).

How the values were obtained:
acute migraine headaches = assay: Double blind, placebo-controlled single dose study in acute migraine headaches (Example 4); assay type: in vivo, human; details: 20 and 40 mg single doses; after 2 hrs and 24 hours
Method: A double blind, multicenter, randomized, placebo-controlled single dose study to evaluate the efficacy of isocarboxazid in the treatment of acute migraine headaches is conducted.
The study consists of a screening visit, at home treatment of a single migraine attack, and a follow up visit 1-5 days following treatment. In addition to safety evaluations, the patients are evaluated for efficacy based on superiority over the placebo at 2 hour and 24 hour periods
after dosing for a) pain relief; b) incidence of photophobia; c) incidence of phonophobia; and d) incidence of nausea.
The results are collected from 30 patients.

migraine patients = assay: Study of preventing migraines (Example 5); assay type: in vivo, human
Excerpt: (§1) This study is designed to evaluate the efficacy of isocarboxazid in preventing migraines and in the treatment of chronic tension-type headache.
(§2) A total of 61 patients suffering from chronic tension-type headache are recruited. […] While on this therapy, 35 of the 42 migraine patients and 16 of the 17 patients with tension-type headaches are experiencing good or very good improvement in their symptoms. […] In tension-type headaches, the effect may occur at the earliest 3-6 weeks and in the case of migraines at the earliest 6-8 weeks after the start of treatment. The therapeutic result is independent of any concurrent depression.

[1] = human, in vivo, inhaled or intranasal, 10 mg
[2] = system: patients suffering from migraine without aura; assay: Double blind, randomized, placebo-controlled study in migraine without aura (Example 3); assay type: in vivo, human; details: 10 mg to 40 mg per day, oral
Excerpt: (§3) A total of 16 patients participate in the study in […]. The age of the recruited patients ranges between 18 years and 75 years. Both male and female patients are selected for the study. Recruitment period for the study is 5 months.
(§4) Isocarboxazid is prescribed as a prophylaxis to one group of patients. Also, isocarboxazid is prescribed after the expression of symptoms to another group of patients. […] Dose increments are based on the investigator's judgment of the patient's response. After 4 weeks of therapy on 20 mg per day, the doses may be increased to 30 mg per day, 10 mg in the AM and 20 mg in the PM. After 4 weeks of therapy on 30 mg per day, doses may be increased to 40 mg per day, 20 mg in the AM and 20 mg in the PM. After 4 weeks of 40 mg per day, the doses may be increased to 50 mg per day, 20 mg in the AM and 30 mg in the PM. After 4 weeks of 50 mg per day, the doses may be increased to 60 mg per day, 30 mg in the AM and 30 mg in the PM. The duration of the medication treatment is a total of 20 weeks.
Patients in the study are diagnosed for the symptoms of migraine without aura. Diagnosis is performed according to the criteria set forth by the International Headache Society. […]
(§5) In order to determine the efficacy of isocarboxazid, pain intensity is evaluated on an assessment scale and recoded in an assessment sheet. […]
(§6) The collected data are statistically analyzed.

[3] = system: patients with tension-type headaches; assay: Study of treatment of chronic tension-type headache (Example 5); assay type: in vivo, human
Excerpt: as §1, §2

[4] = system: patients suffering from migraine with aura; assay: Double blind, randomized, placebo-controlled study in migraine with aura (Example 2); assay type: in vivo, human; details: 10 mg to 40 mg per day, oral
Method: A double blind, multicenter, randomized, placebo-controlled study is performed to evaluate the efficacy of isocarboxazid in treating patients suffering from migraine with aura.
as §3
as §4, with “weeks. […]” for “weeks.”
as §5, §6

[5] = system: subjects with migraine headache; assay: Open-label pilot study of safety, effectiveness and tolerability in the prophylactic treatment of migraine (Example 1); assay type: in vivo, human
Method: An open-label pilot study was performed to evaluate the safety, effectiveness and tolerability of the MAOI isocarboxyzid (Marplan®) in the prophylactic treatment of migraine.
Male and female subjects 18-60 years of age were recruited. […] The subject must have had approximately 3-12 migraine headaches per month for the 3 months prior to entering the screening period. Major exclusion criteria included a history of cluster headache, migraine with prolonged aura, and atypical forms of migraine. […] Concomitant use of tryptans, NSAID's, antidepressants and other commonly used ant-migraine agents was prohibited. The Headache Assessment Scale and other assessments were recorded at Baseline and Weeks 1, 4, 8, 12, 16 and 20. Primary safety and efficacy analysis were based on the intention-to-treat population. Safety data included laboratory data, adverse events, vital signs, and ECG's. The primary efficacy measure was within-subject change from baseline in migraine frequency.
Fourteen subjects had at least on post-baseline assessment, and seven subjects completed the full 20 weeks of treatment (Table 1a,b). […] Five subjects (31%) withdrew due to adverse events. […] The mean does for completers at the end of study was 38.6 mg (Table 2). […] At baseline, subjects reported an average migraine frequency of 5.2 +1.9 attacks/month. […] At week 20, a frequency of 0.4±0.7 (p<0.001) was observed. […] Because of the small number of subjects and relatively high dropout rate, an analysis of the data using a Last Observation Carried Forward (LOF) procedure was undertaken.

## Cc1cc(C(=O)NNCc2ccccc2)no1 [isocarboxazid]
Acute migraine headaches
  effect versus placebo in treating acute headaches: superior effect over a placebo
Migraine patients; migraine patients, 10 to 60 mg daily dose, about 8 months on average
  patients experiencing good or very good improvement in their symptoms: 35 of the 42
Migraine patients; migraines
  earliest occurrence of the effect after the start of treatment: 6-8 weeks
[1]
  share of the maximum plasma concentration (Cmax) reached at 30 minutes after administration: 60%
[2]
  effect versus placebo in treating and preventing migraine without aura: superior effect over the placebo
[3]
  earliest occurrence of the effect after the start of treatment: 3-6 weeks
[3]; 10 to 60 mg daily dose, about 8 months on average
  patients experiencing good or very good improvement in their symptoms: 16 of the 17
[4]
  effect versus placebo in treating and preventing migraine with aura: superior effect over the placebo
[5]; 16 subjects at baseline visit, 20 weeks
  Discontinued (Lack of efficacy), number of subjects (%): 0 (0%)
[5]; LOCF, n 14, p-value 7.0 × 10^−6
  Change from baseline (mean ± SD) in migraine frequency: 3.8 ± 2.8
[5]; Observed cases, n 7, p-value 1.5 × 10^−7
  Change from baseline (mean ± SD) in migraine frequency: 5.9 ± 1.5
[5]; all subjects
  reduction in migraine frequency during the course of treatment: significant reduction
[5]; both, human, in vivo, 20 weeks
  Adverse Event: Anxiety, Number: 1
  Adverse Event: Fatigue, Number: 2
  Adverse Event: Insomnia, Number: 1
  Adverse Event: Nosebleed, Number: 1
  Discontinued (Adverse Experience), number of subjects (%): 5 (31%)
  subjects who withdrew due to adverse events: 31%
[5]; by week 16, all subjects completing the study, FIG. 3
  reduction in migraine frequency (clinically significant response) reached by all completers: ≥ 50%
[5]; most subjects, FIG. 1, titrated from 20 mg per day up to 60 mg per day
  maximum dose tolerated by most subjects: 20 to 40 mg/day
[5]; week 8, FIG. 2
  reductions in migraine frequency by week 8: significant reductions
[5]; week 20, baseline 5.2 +1.9 attacks/month, p<0.001
  migraine frequency at week 20: 0.4±0.7 attacks/month
